Measurements: patent US5817648A, “Vitamin D3 analogues having an unsaturated side chain” (Duphar International Research B.V., priority 1995, dated 1998)

Tests used:
[1] = biological target: T1, calf thymus intracellular vitamin D receptor (VDR) (Bos taurus, UniProt Q28037); experiment: Affinity to intracellular vitamin D receptor (displacement of 3H-1α,25-DHCC); format: binding
T1 construct: calf thymus intracellular vitamin D receptor (VDR); from tissue; host or cells: calf thymus
T1 sequence (Q28037 1-426): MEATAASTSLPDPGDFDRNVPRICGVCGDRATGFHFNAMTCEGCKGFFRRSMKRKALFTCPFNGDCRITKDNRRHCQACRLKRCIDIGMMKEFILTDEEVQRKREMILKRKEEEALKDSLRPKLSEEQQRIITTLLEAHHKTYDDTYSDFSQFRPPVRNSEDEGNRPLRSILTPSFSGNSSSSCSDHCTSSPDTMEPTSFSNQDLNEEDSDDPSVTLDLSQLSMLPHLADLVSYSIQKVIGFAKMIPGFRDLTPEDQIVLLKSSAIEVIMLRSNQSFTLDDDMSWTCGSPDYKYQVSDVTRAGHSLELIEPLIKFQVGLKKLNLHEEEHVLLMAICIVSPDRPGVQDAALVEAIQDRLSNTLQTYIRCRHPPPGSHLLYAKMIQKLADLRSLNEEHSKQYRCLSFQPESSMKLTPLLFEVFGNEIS
Excerpt: In this assay, ^3 H-1α,25-dihydroxycholecalciferol (^3 H-1α,25-DHCC), which is specifically bound to the VDR, is replaced by the tested compounds. […] 9 times that of calcitriol. A high affinity towards the VDR is indicative for biologically active compounds.

[2] = tested on: Vitamin D binding protein (DBP); experiment: Affinity to vitamin D binding protein (competition with 3H-1α,25-DHCC); settings: DBP purified from total human serum
Protocol: Vitamin D binding protein (DBP) is the specific carrier for vitamin D and its metabolites in blood. The biological activity of vitamin D compounds depends on their binding to DBP, because strong binding to DBP will reduce the intracellular access to the VDR. Binding to the DBP may also influence the half-life of the vitamin D derivatives in circulation. Weak binders are rapidly metabolized, which is a favourable aspect in topical application.
In the assay, DBP is incubated with ^3 H-1α,25-DHCC and 1α,25-DHCC or with the vitamin D compounds to be investigated. To this purpose, the vitamin compounds are dissolved in ethanol in concentrations ranging from 10^-11 to […]. The percentage bound/unbound ^3 H-1α,25-DHCC is then calculated. DBP is purified from total human serum. Both 24,24-dihomo-.increment.(24-24a)-calcitriol and 24,24-dihomo-.increment.(24a-24b)-calcitriol are much weaker binders to the DBP than calcitriol (2% and 3.5% respectively).

[3] = tested on: human leukemic cell line HL-60; experiment: Cell differentiation in HL-60 assay (NBT reduction); format: cell-based; settings: compared with calcitriol
Protocol: The vitamin D compounds to be investigated are dissolved in ethanol in concentrations ranging from 10^-12 to 10^-6 M and tested for their capacity to induce cell differentiation in a HL-60 assay. In this assay, biochemical examination of the human leukemic cell line HL-60 is performed, in order to establish whether cell differentiation has taken place.
Differentiation is expressed as the maturation parameter nitroblue tetrazolium (NBT) reduction. After culturing with the known calcitriol or with the vitamin D compounds to be investigated, the percentage of cells containing black formazan deposits is determined. An increase in the percentage of NBT reducing cells indicates an increase in cell differentiation.
Proliferation and vitality of the cell cultures are established by counting the number of cells and by the trypan blue exclusion method.

| affinity towards the VDR relative to calcitriol ([1]; relative to calcitriol) [%] | binding to the DBP relative to calcitriol [2] [%] | affinity towards the VDR, times that of calcitriol [1] | Structure (SMILES) | activity in inducing differentiation of HL-60 cells, times less active than calcitriol [3] [times less active] | activity in inducing differentiation and maturation of the HL-60 cells (in words) [3] |
| --- | --- | --- | --- | --- | --- |
| ≤ 1 | 2 | – | C=C1/C(=C\C=C2/CCC[C@]3(C)[C@@H]([C@H](C)CC/C=C/CC(C)(C)O)CC[C@@H]23)C[C@@H](O)C[C@@H]1O [24,24-dihomo-.increment.(24-24a)calcitriol] | 4 | – |
| – | – | – | C=C1/C(=C\C=C2/CCC[C@]3(C)[C@@H]([C@H](C)CCCC(C)(C)O)CC[C@@H]23)C[C@@H](O)C[C@@H]1O [Calcitriol, calcitriol] | – | equally active |
| – | 3.5 | 9 times that of calcitriol | C=C1/C(=C\C=C2/CCC[C@]3(C)[C@@H]([C@H](C)CCC/C=C/C(C)(C)O)CC[C@@H]23)C[C@@H](O)C[C@@H]1O [Compound 16, (5Z,7E)-(1S,3R)-9,10-Seco-24a,24b-dihomo-(24aE)-5,7,10(19),24a-cholestatetraen-1,3,25-triol] | – | equally active |
